What was measured:
Assay in all cases: SelectScreen Z'LYTE kinase profiling
Type in all cases: biochemical
Details in all cases: ATP at apparent KM
PRKG2 (PKG2) = molecular target: T1, PRKG2 (PKG2) (Homo sapiens, UniProt Q13237)
T1 sequence (Q13237 1-762): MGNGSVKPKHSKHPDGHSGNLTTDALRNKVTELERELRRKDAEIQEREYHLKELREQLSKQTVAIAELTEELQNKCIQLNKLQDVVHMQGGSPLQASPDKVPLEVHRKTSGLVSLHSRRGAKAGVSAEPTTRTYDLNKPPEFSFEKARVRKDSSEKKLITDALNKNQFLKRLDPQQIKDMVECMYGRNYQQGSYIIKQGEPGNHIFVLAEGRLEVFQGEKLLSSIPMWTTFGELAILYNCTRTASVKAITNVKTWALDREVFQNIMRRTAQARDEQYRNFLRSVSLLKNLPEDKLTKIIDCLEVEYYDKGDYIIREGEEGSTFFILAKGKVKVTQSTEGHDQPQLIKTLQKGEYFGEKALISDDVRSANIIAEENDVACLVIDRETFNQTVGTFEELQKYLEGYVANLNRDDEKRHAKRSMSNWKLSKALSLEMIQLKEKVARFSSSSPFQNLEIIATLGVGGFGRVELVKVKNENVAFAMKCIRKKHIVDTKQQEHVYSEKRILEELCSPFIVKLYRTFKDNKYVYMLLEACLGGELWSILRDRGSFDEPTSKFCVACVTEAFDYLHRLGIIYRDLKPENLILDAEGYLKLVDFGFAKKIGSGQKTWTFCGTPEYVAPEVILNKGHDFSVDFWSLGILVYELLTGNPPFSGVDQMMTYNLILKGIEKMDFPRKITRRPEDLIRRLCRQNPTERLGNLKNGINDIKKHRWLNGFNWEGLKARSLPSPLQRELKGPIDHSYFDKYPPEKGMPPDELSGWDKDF
Experimental: (§1) protein kinases at a compound concentration of 1 µM. Measurements were performed in duplicates
(§2) and at the particular apparent ATP KM of each individual kinase employing the activity based Z’LYTE®
(§3) kinase assay of the SelectScreen® Kinase Profiling Services (ThermoFisher Scientific).
(§4) kinases at a compound concentration of 1 µM. Measurements were performed in duplicates and at
(§5) the particular apparent ATP KM of each individual kinase employing the activity based Z’LYTE® kinase
(§6) assay of the SelectScreen® Kinase Profiling Services (ThermoFisher Scientific).

BTK = BTK (Homo sapiens, UniProt Q06187)
BTK, sequence (Q06187 whole entry): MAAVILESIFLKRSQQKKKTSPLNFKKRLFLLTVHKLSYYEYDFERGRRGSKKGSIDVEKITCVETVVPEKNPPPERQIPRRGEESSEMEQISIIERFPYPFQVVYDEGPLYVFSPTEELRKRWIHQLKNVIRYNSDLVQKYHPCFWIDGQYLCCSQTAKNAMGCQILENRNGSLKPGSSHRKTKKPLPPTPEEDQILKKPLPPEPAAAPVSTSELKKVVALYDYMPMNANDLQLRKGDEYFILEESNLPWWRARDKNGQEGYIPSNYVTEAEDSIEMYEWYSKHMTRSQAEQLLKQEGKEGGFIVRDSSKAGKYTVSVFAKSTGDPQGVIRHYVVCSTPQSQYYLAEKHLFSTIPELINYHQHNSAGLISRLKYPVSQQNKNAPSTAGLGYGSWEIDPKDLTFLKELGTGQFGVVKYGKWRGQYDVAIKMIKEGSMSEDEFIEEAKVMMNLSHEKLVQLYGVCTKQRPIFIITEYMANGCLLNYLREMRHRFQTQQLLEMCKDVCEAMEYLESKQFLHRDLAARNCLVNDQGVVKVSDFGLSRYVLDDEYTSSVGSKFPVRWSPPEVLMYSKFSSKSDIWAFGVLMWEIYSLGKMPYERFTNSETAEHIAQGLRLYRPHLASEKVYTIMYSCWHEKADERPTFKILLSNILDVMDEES
Experimental: as §1, §2, §3, §4, §5, §6

PRKD1 (PKC mu) = molecular target: T2, PRKD1 (PKC mu) (Homo sapiens, UniProt Q15139)
T2 sequence (Q15139 1-912): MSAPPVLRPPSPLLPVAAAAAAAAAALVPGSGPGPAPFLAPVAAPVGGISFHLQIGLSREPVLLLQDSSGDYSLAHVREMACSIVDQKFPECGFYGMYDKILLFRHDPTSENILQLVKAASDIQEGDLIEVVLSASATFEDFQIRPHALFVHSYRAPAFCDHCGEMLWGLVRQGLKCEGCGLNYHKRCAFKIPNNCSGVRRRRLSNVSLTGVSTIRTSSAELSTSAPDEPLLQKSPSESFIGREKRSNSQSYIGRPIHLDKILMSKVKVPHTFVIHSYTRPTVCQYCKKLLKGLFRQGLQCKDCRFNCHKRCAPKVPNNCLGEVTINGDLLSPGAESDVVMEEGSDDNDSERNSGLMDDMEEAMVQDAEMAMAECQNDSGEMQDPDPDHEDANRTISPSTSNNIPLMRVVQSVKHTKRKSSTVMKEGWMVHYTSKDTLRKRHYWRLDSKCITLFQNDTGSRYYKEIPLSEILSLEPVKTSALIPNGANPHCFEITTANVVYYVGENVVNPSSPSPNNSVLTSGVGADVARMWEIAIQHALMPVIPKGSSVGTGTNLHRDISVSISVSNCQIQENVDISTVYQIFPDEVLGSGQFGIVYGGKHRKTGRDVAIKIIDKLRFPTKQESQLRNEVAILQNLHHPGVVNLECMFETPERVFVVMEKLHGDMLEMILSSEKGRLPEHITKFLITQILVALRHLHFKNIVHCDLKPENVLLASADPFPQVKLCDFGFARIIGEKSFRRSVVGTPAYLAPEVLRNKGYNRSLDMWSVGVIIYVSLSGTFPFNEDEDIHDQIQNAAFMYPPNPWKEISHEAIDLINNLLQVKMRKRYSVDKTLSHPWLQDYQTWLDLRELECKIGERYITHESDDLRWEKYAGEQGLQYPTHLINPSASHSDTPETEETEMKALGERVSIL
Experimental: as §1, §2, §3, §4, §5, §6

IGF1R = IGF1R (Homo sapiens, UniProt P08069)
IGF1R, sequence (P08069 31-1367): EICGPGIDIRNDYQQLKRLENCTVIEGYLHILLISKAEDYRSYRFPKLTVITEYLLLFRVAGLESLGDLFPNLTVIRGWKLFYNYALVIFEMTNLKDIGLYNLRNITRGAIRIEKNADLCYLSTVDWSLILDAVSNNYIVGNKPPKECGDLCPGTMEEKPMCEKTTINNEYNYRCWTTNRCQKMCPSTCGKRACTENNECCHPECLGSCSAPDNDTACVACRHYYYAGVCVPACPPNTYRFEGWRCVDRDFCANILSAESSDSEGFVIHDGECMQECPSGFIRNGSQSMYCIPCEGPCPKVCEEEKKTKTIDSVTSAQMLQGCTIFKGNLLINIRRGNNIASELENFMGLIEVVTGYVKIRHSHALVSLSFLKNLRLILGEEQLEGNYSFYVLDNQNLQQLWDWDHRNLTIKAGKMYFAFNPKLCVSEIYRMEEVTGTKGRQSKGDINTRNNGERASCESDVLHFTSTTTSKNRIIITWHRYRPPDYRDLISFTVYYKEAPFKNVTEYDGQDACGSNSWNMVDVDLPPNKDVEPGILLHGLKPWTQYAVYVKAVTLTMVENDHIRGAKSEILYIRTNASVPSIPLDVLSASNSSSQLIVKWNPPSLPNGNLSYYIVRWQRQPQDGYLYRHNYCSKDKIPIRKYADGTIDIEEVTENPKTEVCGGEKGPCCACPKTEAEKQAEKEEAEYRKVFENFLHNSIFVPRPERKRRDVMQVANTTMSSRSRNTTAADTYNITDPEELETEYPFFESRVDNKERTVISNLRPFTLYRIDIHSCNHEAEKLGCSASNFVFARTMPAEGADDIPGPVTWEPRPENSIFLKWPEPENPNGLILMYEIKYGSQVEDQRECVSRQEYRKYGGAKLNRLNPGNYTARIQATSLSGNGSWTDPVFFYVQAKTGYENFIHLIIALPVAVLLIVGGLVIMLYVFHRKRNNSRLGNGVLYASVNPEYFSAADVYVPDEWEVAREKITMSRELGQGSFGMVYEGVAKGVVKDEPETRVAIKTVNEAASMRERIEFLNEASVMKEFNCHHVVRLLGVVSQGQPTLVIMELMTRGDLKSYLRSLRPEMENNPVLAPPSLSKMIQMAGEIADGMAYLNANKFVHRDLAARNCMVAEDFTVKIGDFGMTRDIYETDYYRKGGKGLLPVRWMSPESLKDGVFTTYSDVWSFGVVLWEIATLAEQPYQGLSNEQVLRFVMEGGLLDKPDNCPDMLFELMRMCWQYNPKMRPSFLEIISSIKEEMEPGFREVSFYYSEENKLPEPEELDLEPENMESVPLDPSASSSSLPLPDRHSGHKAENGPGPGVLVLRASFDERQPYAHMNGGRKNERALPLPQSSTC

RPS6KA5 (MSK1) = RPS6KA5 (MSK1) (Homo sapiens, UniProt O75582)
RPS6KA5 (MSK1), sequence (O75582 whole entry): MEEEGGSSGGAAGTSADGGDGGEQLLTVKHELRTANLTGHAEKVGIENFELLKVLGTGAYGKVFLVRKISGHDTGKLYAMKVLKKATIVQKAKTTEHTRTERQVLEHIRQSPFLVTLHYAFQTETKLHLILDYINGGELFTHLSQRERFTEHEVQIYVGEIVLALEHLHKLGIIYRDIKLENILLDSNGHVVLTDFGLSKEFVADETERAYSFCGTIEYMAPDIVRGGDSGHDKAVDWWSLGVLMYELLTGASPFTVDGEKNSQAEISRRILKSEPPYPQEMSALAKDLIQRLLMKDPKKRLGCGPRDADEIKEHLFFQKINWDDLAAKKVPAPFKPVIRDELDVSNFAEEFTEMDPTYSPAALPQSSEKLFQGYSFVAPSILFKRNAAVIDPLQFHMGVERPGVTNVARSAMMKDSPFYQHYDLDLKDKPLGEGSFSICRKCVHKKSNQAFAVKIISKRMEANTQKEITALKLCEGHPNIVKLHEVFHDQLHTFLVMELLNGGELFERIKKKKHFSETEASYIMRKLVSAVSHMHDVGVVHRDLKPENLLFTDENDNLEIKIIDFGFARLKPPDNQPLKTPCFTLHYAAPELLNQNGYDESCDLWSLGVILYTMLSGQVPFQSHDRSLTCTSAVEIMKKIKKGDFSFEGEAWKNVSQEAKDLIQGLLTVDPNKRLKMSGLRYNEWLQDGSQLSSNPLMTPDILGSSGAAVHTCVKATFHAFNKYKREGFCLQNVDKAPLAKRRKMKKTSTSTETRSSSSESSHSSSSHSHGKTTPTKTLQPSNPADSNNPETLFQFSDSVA
Experimental: as §1, §2, §3, §4, §5, §6

RPS6KA2 (RSK3) = RPS6KA2 (RSK3) (Homo sapiens, UniProt Q15349)
RPS6KA2 (RSK3), sequence (Q15349 whole entry): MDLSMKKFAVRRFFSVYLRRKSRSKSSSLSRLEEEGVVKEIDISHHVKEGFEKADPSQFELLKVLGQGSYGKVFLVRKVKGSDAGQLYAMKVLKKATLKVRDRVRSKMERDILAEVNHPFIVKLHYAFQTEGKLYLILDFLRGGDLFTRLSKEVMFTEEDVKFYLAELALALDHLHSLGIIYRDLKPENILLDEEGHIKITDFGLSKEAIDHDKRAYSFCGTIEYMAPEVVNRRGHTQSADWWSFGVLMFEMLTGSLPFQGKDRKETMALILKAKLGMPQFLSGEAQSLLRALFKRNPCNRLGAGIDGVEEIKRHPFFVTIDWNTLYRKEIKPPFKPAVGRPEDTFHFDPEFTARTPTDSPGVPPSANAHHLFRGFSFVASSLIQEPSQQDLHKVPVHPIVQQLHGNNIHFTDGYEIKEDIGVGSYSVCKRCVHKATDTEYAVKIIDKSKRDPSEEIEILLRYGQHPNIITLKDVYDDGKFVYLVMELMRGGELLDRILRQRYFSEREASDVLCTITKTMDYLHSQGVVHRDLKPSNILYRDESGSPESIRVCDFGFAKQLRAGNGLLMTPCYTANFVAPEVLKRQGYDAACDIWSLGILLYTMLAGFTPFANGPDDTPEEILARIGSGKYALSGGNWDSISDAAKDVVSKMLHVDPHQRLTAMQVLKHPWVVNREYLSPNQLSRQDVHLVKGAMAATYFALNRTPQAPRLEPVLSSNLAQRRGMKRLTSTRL
Experimental: as §1, §2, §3, §4, §5, §6

EPHB4 = molecular target: T3, EPHB4 (Homo sapiens, UniProt P54760)
T3 sequence (P54760 16-987): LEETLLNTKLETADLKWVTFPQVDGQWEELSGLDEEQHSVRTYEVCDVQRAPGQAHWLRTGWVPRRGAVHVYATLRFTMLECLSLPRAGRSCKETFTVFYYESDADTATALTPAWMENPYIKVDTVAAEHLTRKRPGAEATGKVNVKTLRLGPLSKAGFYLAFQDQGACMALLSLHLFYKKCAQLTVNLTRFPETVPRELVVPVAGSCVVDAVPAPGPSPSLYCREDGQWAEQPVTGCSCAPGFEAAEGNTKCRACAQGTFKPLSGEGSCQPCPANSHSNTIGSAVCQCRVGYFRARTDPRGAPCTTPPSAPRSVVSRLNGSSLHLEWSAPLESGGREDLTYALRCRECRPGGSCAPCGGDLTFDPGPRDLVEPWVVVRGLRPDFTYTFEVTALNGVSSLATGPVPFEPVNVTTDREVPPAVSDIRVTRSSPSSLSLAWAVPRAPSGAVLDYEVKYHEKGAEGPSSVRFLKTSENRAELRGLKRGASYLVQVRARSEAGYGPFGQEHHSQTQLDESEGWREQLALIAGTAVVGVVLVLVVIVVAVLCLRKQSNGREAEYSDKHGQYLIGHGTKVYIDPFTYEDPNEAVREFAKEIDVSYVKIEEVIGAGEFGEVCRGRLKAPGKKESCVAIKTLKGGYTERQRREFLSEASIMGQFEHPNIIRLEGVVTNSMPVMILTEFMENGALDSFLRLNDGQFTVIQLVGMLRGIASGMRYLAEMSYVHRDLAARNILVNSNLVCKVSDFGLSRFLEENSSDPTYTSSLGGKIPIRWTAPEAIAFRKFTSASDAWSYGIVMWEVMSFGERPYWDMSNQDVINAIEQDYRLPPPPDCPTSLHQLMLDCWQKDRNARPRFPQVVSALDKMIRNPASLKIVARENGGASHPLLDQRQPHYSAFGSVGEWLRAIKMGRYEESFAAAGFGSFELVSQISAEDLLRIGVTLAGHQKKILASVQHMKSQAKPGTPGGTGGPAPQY
Experimental: as §1, §2, §3, §4, §5, §6

| SMILES | inhibition at 1 µM (PRKG2 (PKG2)) [%] | inhibition at 1 µM (BTK) [%] | inhibition at 1 µM (PRKD1 (PKC mu)) [%] | inhibition at 1 µM (IGF1R) [%] | inhibition at 1 µM (RPS6KA5 (MSK1)) [%] | inhibition at 1 µM (RPS6KA2 (RSK3)) [%] | inhibition at 1 µM (EPHB4) [%] |
| --- | --- | --- | --- | --- | --- | --- | --- |
| C=CC(=O)Nc1cccc(C(=O)NC2CCN(Cc3ccc(-c4nc5cc[nH]c(=O)c5cc4-c4ccccc4)cc3)CC2)c1 [30b] | 5 | 22 | 6 | 1 | 13 | 33 | 1 |
| C=CC(=O)Nc1cc(NC(=O)NC2CCN(Cc3ccc(-c4nc5cc[nH]c(=O)c5cc4-c4ccccc4)cc3)CC2)ccc1Cl [compound 27] | -4 | 10 | 17 | 7 | 13 | 31 | 4 |
| C=CC(=O)Nc1ccc2c(c1)n(C1CCN(Cc3ccc(-c4nc5cc[nH]c(=O)c5cc4-c4ccccc4)cc3)CC1)c(=O)n2C [24b] | -4 | 12 | 13 | 6 | 8 | 25 | 4 |

Source: publication PMC6430017, “Structural and chemical insights into the covalent-allosteric inhibition of the protein kinase Akt” (Chemical Science, 2019)
